# Results: PMC5218480 (PLoS ONE, 2017)
# Tested on: MV-4-11 cells
# Experiment: Gene expression microarray analysis (Affymetrix PrimeView) and GSEA
# Type: cell-based, human
# Design: RFU PODN (11730768_x_at) / Fold change /veh PODN (11730768_x_at) / RFU LINC00158 (11744669_a_at) / Fold change /veh LINC00158 (11744669_a_at) / RFU DUSP10 (11751237_a_at) / Fold change /veh DUSP10 (11751237_a_at) / RFU ID3 (11757404_x_at) / Fold change /veh ID3 (11757404_x_at) / RFU PLEKHG5 (11737974_s_at) / Fold change /veh PLEKHG5 (11737974_s_at) / RFU LRRC4B (11730491_at) / Fold change /veh LRRC4B (11730491_at) / RFU GIMAP4 (11747438_a_at) / Fold change /veh GIMAP4 (11747438_a_at) / RFU KRT8 (11758183_x_at) / Fold change /veh KRT8 (11758183_x_at) / RFU CNN1 (11734310_a_at) / Fold change /veh CNN1 (11734310_a_at) / RFU VPS37D (11726825_at) / Fold change /veh VPS37D (11726825_at) / RFU C10orf10 (11716522_x_at) / Fold change /veh C10orf10 (11716522_x_at) / RFU KIR2DL2 /// KIR2DL4 /// KIR2DL5A /// KIR2DL5B /// KIR2DS1 /// KIR2DS2 /// KIR2DS3 /// KIR2DS4 /// KIR3DL3 /// KIR3DL3 /// KIR3DS1 (11738374_at) / Fold change /veh KIR2DL2 /// KIR2DL4 /// KIR2DL5A /// KIR2DL5B /// KIR2DS1 /// KIR2DS2 /// KIR2DS3 /// KIR2DS4 /// KIR3DL3 /// KIR3DL3 /// KIR3DS1 (11738374_at) / RFU C1QL1 (11718748_at) / Fold change /veh C1QL1 (11718748_at) / RFU TMPRSS4 (11747572_a_at) / Fold change /veh TMPRSS4 (11747572_a_at) / RFU HAMP (11756126_x_at) / Fold change /veh HAMP (11756126_x_at) / RFU RNFT2 (11725882_a_at) / Fold change /veh RNFT2 (11725882_a_at) / RFU NR4A2 (11747474_a_at) / Fold change /veh NR4A2 (11747474_a_at) / RFU ABCC12 (11746883_a_at) / Fold change /veh ABCC12 (11746883_a_at) / RFU TMEM136 (11760407_x_at) / Fold change /veh TMEM136 (11760407_x_at) / RFU CLDN22 /// WWC2 (11732394_at) / Fold change /veh CLDN22 /// WWC2 (11732394_at) / RFU HLA-DPB1 (11760878_x_at) / Fold change /veh HLA-DPB1 (11760878_x_at) / RFU SPINT1 (11716480_a_at) / Fold change /veh SPINT1 (11716480_a_at) / RFU GAP43 (11754022_s_at) / Fold change /veh GAP43 (11754022_s_at) / RFU A4GNT (11735810_at) / Fold change /veh A4GNT (11735810_at) / RFU PRB3 (11715151_x_at) / Fold change /veh PRB3 (11715151_x_at) / RFU TUBB4B (11761932_at) / Fold change /veh TUBB4B (11761932_at) / RFU CAPN14 (11732068_a_at) / Fold change /veh CAPN14 (11732068_a_at) / RFU TMCC2 (11721928_a_at) / Fold change /veh TMCC2 (11721928_a_at) / RFU IRGQ (11745062_a_at) / Fold change /veh IRGQ (11745062_a_at) / RFU FAM174B (11720279_a_at) / Fold change /veh FAM174B (11720279_a_at) / RFU TMPRSS4 (11748680_a_at) / Fold change /veh TMPRSS4 (11748680_a_at) / RFU FAM212B (11763350_a_at) / Fold change /veh FAM212B (11763350_a_at) / RFU PLEKHG5 (11743358_a_at) / Fold change /veh PLEKHG5 (11743358_a_at) / RFU ZSCAN30 (11745921_a_at) / Fold change /veh ZSCAN30 (11745921_a_at) / RFU CMKLR1 (11741424_a_at) / Fold change /veh CMKLR1 (11741424_a_at) / RFU LOC101060620 /// MAPK8IP1 (11723275_at) / Fold change /veh LOC101060620 /// MAPK8IP1 (11723275_at) / RFU SPTSSB (11747773_x_at) / Fold change /veh SPTSSB (11747773_x_at) / RFU PRSS12 (11739890_at) / Fold change /veh PRSS12 (11739890_at) / RFU BIN1 (11741810_x_at) / Fold change /veh BIN1 (11741810_x_at) / RFU WNT11 (11732464_a_at) / Fold change /veh WNT11 (11732464_a_at) / RFU C10orf10 (11716521_a_at) / Fold change /veh C10orf10 (11716521_a_at) / RFU C5orf56 (11738089_at) / Fold change /veh C5orf56 (11738089_at) / RFU CYB561 (11721691_x_at) / Fold change /veh CYB561 (11721691_x_at) / RFU ANKRD19P (11752326_a_at) / Fold change /veh ANKRD19P (11752326_a_at) / RFU OR2T12 /// OR2T33 /// OR2T8 (11738714_s_at) / Fold change /veh OR2T12 /// OR2T33 /// OR2T8 (11738714_s_at) / RFU VCAN (11748164_a_at) / Fold change /veh VCAN (11748164_a_at) / RFU JSRP1 (11732532_at) / Fold change /veh JSRP1 (11732532_at) / RFU KRTAP10-11 (11738290_x_at) / Fold change /veh KRTAP10-11 (11738290_x_at) / RFU MYO3A (11730013_a_at) / Fold change /veh MYO3A (11730013_a_at) / RFU EBF3 (11725865_a_at) / Fold change /veh EBF3 (11725865_a_at) / RFU CAMK2N1 (11719241_x_at) / Fold change /veh CAMK2N1 (11719241_x_at) / RFU C5orf56 (11738088_a_at) / Fold change /veh C5orf56 (11738088_a_at) / RFU OLFML3 (11715873_a_at) / Fold change /veh OLFML3 (11715873_a_at) / RFU LOC100653217 /// NTM (11731650_a_at) / Fold change /veh LOC100653217 /// NTM (11731650_a_at) / RFU MAPK11 (11762145_a_at) / Fold change /veh MAPK11 (11762145_a_at) / RFU FIZ1 (11724087_x_at) / Fold change /veh FIZ1 (11724087_x_at) / RFU OASL (11726364_x_at) / Fold change /veh OASL (11726364_x_at) / RFU SOX15 (11748057_x_at) / Fold change /veh SOX15 (11748057_x_at) / RFU CD79A (11719716_a_at) / Fold change /veh CD79A (11719716_a_at) / RFU HIST1H1D (11736915_at) / Fold change /veh HIST1H1D (11736915_at) / RFU CASKIN2 (11723855_a_at) / Fold change /veh CASKIN2 (11723855_a_at) / RFU LOC730098 (11760151_x_at) / Fold change /veh LOC730098 (11760151_x_at) / RFU OR4N2 (11742367_at) / Fold change /veh OR4N2 (11742367_at) / RFU PRRT2 (11749266_a_at) / Fold change /veh PRRT2 (11749266_a_at) / RFU SNX32 (11753110_a_at) / Fold change /veh SNX32 (11753110_a_at) / RFU CDHR5 (11726645_a_at) / Fold change /veh CDHR5 (11726645_a_at) / RFU RCAN1 (11760418_a_at) / Fold change /veh RCAN1 (11760418_a_at) / RFU FAM167A (11723789_a_at) / Fold change /veh FAM167A (11723789_a_at) / RFU FAM26E (11764081_at) / Fold change /veh FAM26E (11764081_at) / RFU ISYNA1 (11749810_s_at) / Fold change /veh ISYNA1 (11749810_s_at) / RFU ACY1 (11761880_at) / Fold change /veh ACY1 (11761880_at) / RFU 11764098_at / Fold change /veh 11764098_at / RFU SAMD14 (11745864_x_at) / Fold change /veh SAMD14 (11745864_x_at) / RFU NPB (11741838_a_at) / Fold change /veh NPB (11741838_a_at) / RFU TMPRSS6 (11731388_a_at) / Fold change /veh TMPRSS6 (11731388_a_at) / RFU KRTAP10-2 (11738614_at) / Fold change /veh KRTAP10-2 (11738614_at) / RFU ARHGAP8 /// PRR5-ARHGAP8 (11727945_x_at) / Fold change /veh ARHGAP8 /// PRR5-ARHGAP8 (11727945_x_at) / RFU KRTAP5-7 /// NADSYN1 (11734609_at) / Fold change /veh KRTAP5-7 /// NADSYN1 (11734609_at) / RFU RASL12 (11751679_a_at) / Fold change /veh RASL12 (11751679_a_at) / RFU CDKN2B (11736163_a_at) / Fold change /veh CDKN2B (11736163_a_at) / RFU PRF1 (11729649_at) / Fold change /veh PRF1 (11729649_at) / RFU, ZNF638 /// ZNF638-IT1 / Fold change vs veh, ZNF638 /// ZNF638-IT1 / RFU, PANK3 / Fold change vs veh, PANK3 / RFU, SH3YL1 / Fold change vs veh, SH3YL1 / RFU, ZEB2 / Fold change vs veh, ZEB2 / RFU, NRIP1 / Fold change vs veh, NRIP1 / RFU, PTTG1IP / Fold change vs veh, PTTG1IP / RFU, CAPN2 / Fold change vs veh, CAPN2 / RFU, MED14 / Fold change vs veh, MED14 / RFU, SNORA58 / Fold change vs veh, SNORA58 / RFU, C1orf63 / Fold change vs veh, C1orf63 / RFU, LRRFIP1 / Fold change vs veh, LRRFIP1 / RFU, NDUFAF7 / Fold change vs veh, NDUFAF7 / RFU, SLC12A2 / Fold change vs veh, SLC12A2 / RFU, IBTK / Fold change vs veh, IBTK / RFU, ESF1 / Fold change vs veh, ESF1 / Fold change vs veh, TMEM50B / RFU, TAOK1 / Fold change vs veh, TAOK1 / RFU, ACBD3 / Fold change vs veh, ACBD3 / RFU, TMA16 / Fold change vs veh, TMA16 / RFU, RWDD3 / Fold change vs veh, RWDD3 / RFU, BCAT1 / Fold change vs veh, BCAT1 / RFU, EDEM3 / Fold change vs veh, EDEM3 / RFU, TMEM33 / Fold change vs veh, TMEM33 / RFU, WDR75 / Fold change vs veh, WDR75 / RFU, AHCTF1 / Fold change vs veh, AHCTF1 / RFU, TFRC / Fold change vs veh, TFRC / RFU, ZDHHC17 / Fold change vs veh, ZDHHC17 / RFU, NOM1 / Fold change vs veh, NOM1 / RFU, ARL8B / Fold change vs veh, ARL8B / RFU, ZBTB11 / Fold change vs veh, ZBTB11 / RFU, TAMM41 / Fold change vs veh, TAMM41 / RFU, KIAA1704 /// LOC100996395 / Fold change vs veh, KIAA1704 /// LOC100996395 / RFU, ING1 / Fold change vs veh, ING1 / RFU, TRMT61B / Fold change vs veh, TRMT61B / RFU, FUBP3 / Fold change vs veh, FUBP3 / RFU, TP53 / Fold change vs veh, TP53 / RFU, TNKS2 / Fold change vs veh, TNKS2 / RFU, ZFP14 / Fold change vs veh, ZFP14 / RFU, ACTR2 / Fold change vs veh, ACTR2 / RFU, PPP3R1 / Fold change vs veh, PPP3R1 / RFU, PIK3R1 / Fold change vs veh, PIK3R1 / RFU, HNRNPA1 / Fold change vs veh, HNRNPA1 / RFU, RNF170 / Fold change vs veh, RNF170 / RFU, ZNF28 / Fold change vs veh, ZNF28 / RFU, RNGTT / Fold change vs veh, RNGTT / RFU, OGT / Fold change vs veh, OGT / RFU, BRD1 / Fold change vs veh, BRD1 / RFU, MARS / Fold change vs veh, MARS / RFU, ZNF655 / Fold change vs veh, ZNF655 / RFU, FAHD1 / Fold change vs veh, FAHD1 / RFU, BDP1 / Fold change vs veh, BDP1 / RFU, LRRCC1 / Fold change vs veh, LRRCC1 / RFU, ARID1A / Fold change vs veh, ARID1A / RFU, ZNF146 / Fold change vs veh, ZNF146 / RFU, ZNF330 / Fold change vs veh, ZNF330 / RFU, GPN3 / Fold change vs veh, GPN3 / RFU, C9orf123 / Fold change vs veh, C9orf123 / RFU, N4BP2L2 / Fold change vs veh, N4BP2L2 / RFU, ARFIP1 / Fold change vs veh, ARFIP1 / RFU, FAM179B / Fold change vs veh, FAM179B / RFU, BCL10 / Fold change vs veh, BCL10 / RFU, UHRF1BP1L / Fold change vs veh, UHRF1BP1L / RFU, BET1 / Fold change vs veh, BET1 / RFU, CNOT2 / Fold change vs veh, CNOT2 / RFU, ZNF268 / Fold change vs veh, ZNF268 / Fold change vs veh, ZNF507 / RFU, DGCR2 / Fold change vs veh, DGCR2 / RFU, WDSUB1 / Fold change vs veh, WDSUB1 / Fold change vs veh, HSP90B1 /// MIR3652 / RFU, ADSS / Fold change vs veh, ADSS / RFU, GK / Fold change vs veh, GK / RFU, ZNF148 / Fold change vs veh, ZNF148 / RFU, TAF9 / Fold change vs veh, TAF9 / RFU, SLC1A5 / Fold change vs veh, SLC1A5 / RFU, SLMO2 / Fold change vs veh, SLMO2 / RFU, ABCC4 / Fold change vs veh, ABCC4 / RFU, LOC101060439 /// RAP1B / Fold change vs veh, LOC101060439 /// RAP1B / RFU, RFX7 / Fold change vs veh, RFX7 / RFU, GTPBP10 / Fold change vs veh, GTPBP10 / RFU, CNEP1R1 / Fold change vs veh, CNEP1R1 / RFU, BIVM-ERCC5 /// ERCC5 / Fold change vs veh, BIVM-ERCC5 /// ERCC5 / RFU, ILF3 / Fold change vs veh, ILF3 / RFU 11762660_at / Fold change /veh 11762660_at / RFU VCAN (11757783_s_at) / Fold change /veh VCAN (11757783_s_at) / RFU DDX43 (11728927_at) / Fold change /veh DDX43 (11728927_at) / RFU KRT8 (11758188_x_at) / Fold change /veh KRT8 (11758188_x_at) / RFU NKD1 (11759106_at) / Fold change /veh NKD1 (11759106_at) / RFU SRD5A1 (11742802_a_at) / Fold change /veh SRD5A1 (11742802_a_at) / RFU TPSAB1 /// TPSB2 (11721975_s_at) / Fold change /veh TPSAB1 /// TPSB2 (11721975_s_at) / RFU GSTM3 (11746129_a_at) / Fold change /veh GSTM3 (11746129_a_at) / RFU IL23R (11737362_x_at) / Fold change /veh IL23R (11737362_x_at) / RFU TMEM51 (11727254_a_at) / Fold change /veh TMEM51 (11727254_a_at) / RFU PIWIL2 (11732686_x_at) / Fold change /veh PIWIL2 (11732686_x_at) / RFU ORM1 (11744905_x_at) / Fold change /veh ORM1 (11744905_x_at) / RFU CCDC152 (11743942_at) / Fold change /veh CCDC152 (11743942_at) / RFU ECM1 (11717891_a_at) / Fold change /veh ECM1 (11717891_a_at) / RFU IL23R (11748794_a_at) / Fold change /veh IL23R (11748794_a_at) / RFU TNFAIP8L3 (11732012_x_at) / Fold change /veh TNFAIP8L3 (11732012_x_at) / RFU MBOAT4 (11741988_at) / Fold change /veh MBOAT4 (11741988_at) / RFU 11764193_at / Fold change /veh 11764193_at / RFU TMEM53 (11763286_at) / Fold change /veh TMEM53 (11763286_at) / RFU MAGEB2 (11727129_at) / Fold change /veh MAGEB2 (11727129_at) / RFU TMEM200A (11744735_a_at) / Fold change /veh TMEM200A (11744735_a_at) / RFU CCDC152 (11751479_a_at) / Fold change /veh CCDC152 (11751479_a_at) / RFU FAM211A (11726209_a_at) / Fold change /veh FAM211A (11726209_a_at) / RFU RGS16 (11746705_a_at) / Fold change /veh RGS16 (11746705_a_at) / RFU VCAN (11755009_s_at) / Fold change /veh VCAN (11755009_s_at) / RFU RHOB (11743442_s_at) / Fold change /veh RHOB (11743442_s_at) / RFU RGS16 (11720943_a_at) / Fold change /veh RGS16 (11720943_a_at) / RFU RGS16 (11720944_at) / Fold change /veh RGS16 (11720944_at) / RFU, VPS4B / Fold change vs veh, VPS4B / RFU, CREB1 / Fold change vs veh, CREB1 / RFU, DNAJC13 / Fold change vs veh, DNAJC13 / RFU, GNAQ / Fold change vs veh, GNAQ / RFU, CDK5R1 / Fold change vs veh, CDK5R1 / RFU, ZRANB3 / Fold change vs veh, ZRANB3 / RFU, CUL4A / Fold change vs veh, CUL4A / RFU, CCNY / Fold change vs veh, CCNY / RFU, UFL1 / Fold change vs veh, UFL1 / RFU, COG3 / Fold change vs veh, COG3 / RFU, DIAPH2 / Fold change vs veh, DIAPH2 / RFU, SKA2 / Fold change vs veh, SKA2 / RFU, AFF3 / Fold change vs veh, AFF3 / RFU, LMF1 / Fold change vs veh, LMF1 / RFU, IPO11 / Fold change vs veh, IPO11 / RFU, DFFB / Fold change vs veh, DFFB / RFU, FOXP1 / Fold change vs veh, FOXP1 / RFU, CARD8 / Fold change vs veh, CARD8 / RFU, STRN3 / Fold change vs veh, STRN3 / RFU, ADK / Fold change vs veh, ADK / RFU, RASSF2 / Fold change vs veh, RASSF2 / RFU, WIPF1 / Fold change vs veh, WIPF1 / RFU, LARP1B / Fold change vs veh, LARP1B / RFU, RASA1 / Fold change vs veh, RASA1 / RFU, RB1 / Fold change vs veh, RB1 / RFU, PPFIA1 / Fold change vs veh, PPFIA1 / RFU, MAT2A / Fold change vs veh, MAT2A / RFU, CCT5 / Fold change vs veh, CCT5 / RFU, WDR92 / Fold change vs veh, WDR92 / RFU, CUX1 / Fold change vs veh, CUX1 / RFU, TTC7A / Fold change vs veh, TTC7A / RFU, TMEM135 / Fold change vs veh, TMEM135 / RFU, DEPTOR / Fold change vs veh, DEPTOR / RFU, CPM / Fold change vs veh, CPM / RFU, DNAJB6 / Fold change vs veh, DNAJB6 / RFU, CACNA2D3 / Fold change vs veh, CACNA2D3 / RFU, DTX4 / Fold change vs veh, DTX4 / RFU, TFCP2 / Fold change vs veh, TFCP2 / RFU, GMCL1 /// GMCL1P1 / Fold change vs veh, GMCL1 /// GMCL1P1 / RFU, AEBP2 / Fold change vs veh, AEBP2 / RFU, SNHG1 /// SNORD22 /// SNORD25 /// SNORD26 /// SNORD27 /// SNORD28 /// SNORD29 /// SNORD31 / Fold change vs veh, SNHG1 /// SNORD22 /// SNORD25 /// SNORD26 /// SNORD27 /// SNORD28 /// SNORD29 /// SNORD31 / Fold change (Aza/veh), C12orf56 (ProbeSet 11735607_a_at) / Fold change (ACY-1035/veh), C12orf56 (ProbeSet 11735607_a_at) / Fold change (Aza/veh), FGFR1OP (ProbeSet 11751329_s_at) / Fold change (ACY-1035/veh), FGFR1OP (ProbeSet 11751329_s_at) / Fold change (Aza/veh), VPS36 (ProbeSet 11739960_a_at) / Fold change (ACY-1035/veh), VPS36 (ProbeSet 11739960_a_at) / RFU SYPL1 (11715823_x_at) / Fold change /veh SYPL1 (11715823_x_at) / RFU IGFBP7 (11715501_s_at) / Fold change /veh IGFBP7 (11715501_s_at) / RFU REEP3 (11722064_at) / Fold change /veh REEP3 (11722064_at) / RFU IGLL1 (11728026_x_at) / Fold change /veh IGLL1 (11728026_x_at): dose or concentration left out as unconfirmed
# Conditions: ProbeSet 11720566_at; LIST D
smiles,measurement,value
Nc1ccc(-c2cccs2)cc1NC(=O)c1ccc2c(c1)cc(C1CC1)n2CCN1CCOCC1 [ACY-1035],"RFU, BCAT1",827.78 RFU
